Here are results for four molecules from patent US4612302A, “Clinical use of somatostatin analogues” (Brigham and Women's Hospital, priority 1983, dated 1986).

Non-standard residues stand in square brackets, D forms with d. Residues, ends and D or L forms follow the SMILES beside them. No end group written: not given here.

One assay deals with phagocytes. The experiment in a line: Carbon clearance (colloidal carbon / India ink) from the blood of rats. The note with it: for India ink (μl/ml blood) 3 min: 3 min after i.v. colloidal carbon; for India ink (μl/ml blood) 3 min / India ink (μl/ml blood) 6 min / India ink (μl/ml blood) 12 min / India ink (μl/ml blood) 24 min: 50 μg i.v. once daily for 3 days before carbon; for India ink (μl/ml blood) 6 min: 6 min after i.v. colloidal carbon; for India ink (μl/ml blood) 12 min: 12 min after i.v. colloidal carbon; for India ink (μl/ml blood) 24 min: 24 min after i.v. colloidal carbon; for Speed of action in carbon clearance compared with somatostatin: greater carbon clearance at 6 minutes than somatostatin; for Potency in carbon clearance compared with somatostatin: lower levels of carbon at the late time intervals. Format: in vivo, female Spraque-Dawley rats. The procedure:
Rats were injected either with saline or with a colloidal carbon suspension, and the time required for clearing of colloidal particles from the blood stream was measured. In a comparative experiment, zymosan, an agent known to increase the activity or phagocytes, was administered instead of the somatostatin analogue. In rats which received injections of saline, the disappearance of colloidal carbon from the blood was virtually linear, an expected result based on previous studies by others. Administration of a somatostatin analogue markedly accelerated the carbon clearance, even more so than for somatostatin itself.
(§1) All of the experiments described below were performed in female Spraque-Dawley rats (ESS Laboratories, Lynnfield, Mass.) with an initial body weight of 150-180 g, and with unlimited access to Purina laboratory chow and tap water. Control and experimental groups consisted of 3-4 rats. Each experiment was repeated at least twice and the results were pooled. Analogue I is cyclo[L-Pro-Phe-D-Trp-Lys-Thr-L-Phe]. Analogue II is cyclo[L-Phe-Phe-L-Trp-Lys-Thr-D-Phe]. These are preferred compounds for all aspects of the invention. The compound can be synthesized according to the procedure described in Veber et al., Nature, 292, 55-58 (1981), which is herein incorporated by reference. Basically, the linear peptide is prepared by a solid phase technique, for example, using a Beckman 990 peptide synthesizer following the protocol described in Strachan et al, J. Med. Chem., 22, 586-588 (1979), which is herein incorporated by reference. The linear peptide can then be cyclized by the technique of Veber et al, Proc. Natl. Acad. Sci. USA, 75, 2636-2640 (1978), which is also herein incorporated by reference. Linear or cyclic somatostatin (Serono) or a somatostatin analogue was injected under mild ether anesthesia at 50 μg in 0.5 ml of saline into the jugular vein once daily for 3 consecutive days prior to injection with carbon. Control animals were injected with the same amount of saline. In all of the carbon clearance experiments, 0.1 ml/100 g of the supernatant of centrifuged (3000 rpm/15 min) colloidal carbon (Wagner's india ink) was injected i.v. under mild ether anesthesia. Blood samples (50 μl) were obtained with heparinized glass capillaries and by puncture of the retro-orbital venous plexus at 3, 6, 12 and 24 minutes after the administration of carbon. The blood samples were lysed in 2 ml of 0.1% Na2 CO3 solution and the quantity of carbon in the blood was measured.

Assay [1] concerns liver injury induced by galactosamine. The assay can be described thus: Galactosamine-induced liver injury (hepatic necrosis and inflammation) in rats. Type of assay: in vivo, female Spraque-Dawley rats. To be noted: 28 hr after galactosamine 1 g/kg i.p., somatostatin 250 μg, analogues 125 μg i.p.; for Liver histology (Scale: 0-4): scale 0-4, 4 = greatest damage. The procedure: as §1
The liver protection studies included the effect of somatostatin and analogues on liver injury induced by galactosamine or phalloidin. Galactosamine-induced hepatic necrosis and inflammation was produced by injecting rats with 1 g/kg of galactosamine i.p. at 0 hr. Regular somatostatin was injected at 250 μg, analogues at 125 μg i.p. at -30 and […]. The animals were killed at 28 hr after galactosamine. Liver damage was measured by the elevation of serum transaminase (SGOT) and by liver histology (scale: 0-4 with 4 indicating the greatest damage).

The subject of assay [2] is liver injury induced by phalloidin. The experiment in a line: Phalloidin-induced liver and hepatic blood vessel lesions in rats. Format: in vivo. The note with it: phalloidin 0.12 mg per 100 g i.p. The method, then:
This toxin kills rats within about 4 hours after intraperitoneal injection. Rats injected with 0.12 mg phalloidin per 100 g body weight (i.p.) show a massive increase in liver size accompanied by hemorrhage. In a control group of rats given phalloidin but no somatostatin analogue, 22 of 24 rats died within 2-4 hours.
In both cases, rats were given saline (control), phalloidin alone, or phalloidin and a somatostatin analogue. Somatostatin analogues were given in subcutaneous injections in a solution of protamine sulfate and zinc chloride in order to prolong its effectiveness, or in normal saline.
In the biochemical experiments, the animals were also injected with Evans blue 15 min before autopsy. At autopsy the portal vein was perfused in situ with 20 ml of saline to remove blood from hepatic vaculature. Phalloidin caused a time dependent increase in the hepatic uptake of Evans blue, indicative of leakage of blood into the tissue through blood vessel lesions. Somatostatin analogue treatment virtually abolished this enhanced uptake of the dye. In the morphologic experiments, groups of rats were also injected with colloidal carbon (India ink, […] i.v.) 15 min before autopsy. At that time pieces of liver were processed for subsequent light or electron microscopic studies. […]

Regarding `C[C@@H](O)[C@@H]1NC(=O)[C@H](CCCCN)NC(=O)[C@@H](Cc2c[nH]c3ccccc23)NC(=O)[C@H](Cc2ccccc2)NC(=O)[C@@H]2CCCN2C(=O)[C@H](Cc2ccccc2)NC1=O` [Analogue I, cyclo[L-Pro-Phe-D-Trp-Lys-Thr-L-Phe]] (cyclo(PF[dW]KTF)), in the assay with phagocytes, the “India ink (μl/ml blood) 3 min” value is listed as 12.5 ± 3.0 μl/ml blood, the “India ink (μl/ml blood) 6 min” value came to 6.9 ± 0.9 μl/ml blood, the “India ink (μl/ml blood) 12 min” value is on record as 2.6 ± 0.7 μl/ml blood and the “India ink (μl/ml blood) 24 min” value turned out to be 2.4 ± 0.5 μl/ml blood. In the assay with phagocytes, the “Speed of action in carbon clearance compared with somatostatin” value is “faster acting” and the “Potency in carbon clearance compared with somatostatin” value was “more potent than somatostatin”. Further, in assay [1], the “SGOT (U/l)” value is 573 ± 138 U/l and the “Liver histology (Scale: 0-4)” value worked out at 1.1 ± 0.1.

Regarding `C[C@@H](O)[C@@H]1NC(=O)[C@H](CCCCN)NC(=O)[C@H](Cc2c[nH]c3ccccc23)NC(=O)[C@H](Cc2ccccc2)NC(=O)[C@H](Cc2ccccc2)NC(=O)[C@@H](Cc2ccccc2)NC1=O` [Analogue II, cyclo[L-Phe-Phe-L-Trp-Lys-Thr-D-Phe]] (cyclo(FFWKT[dF])), in the assay with phagocytes, the “India ink (μl/ml blood) 3 min” value is reported as 13.2 ± 2.0 μl/ml blood, the “India ink (μl/ml blood) 6 min” value was 5.6 ± 0.5 μl/ml blood, the “India ink (μl/ml blood) 12 min” value was 3.2 ± 0.9 μl/ml blood and the “India ink (μl/ml blood) 24 min” value turned out to be 1.8 ± 0.2 μl/ml blood. Further, in the assay with phagocytes, the “Speed of action in carbon clearance compared with somatostatin” value is “faster acting” and the “Potency in carbon clearance compared with somatostatin” value is “more potent than somatostatin”. Further, in assay [1], the “SGOT (U/l)” value is 700 U/l and the “Liver histology (Scale: 0-4)” value was found to be 1.0.

On to `C[C@H](N)C(=O)NCC(=O)N[C@H]1CSSC[C@@H](C(=O)O)NC(=O)[C@H](CO)NC(=O)[C@H]([C@@H](C)O)NC(=O)[C@H](Cc2ccccc2)NC(=O)[C@H]([C@@H](C)O)NC(=O)[C@H](CCCCN)NC(=O)[C@H](Cc2c[nH]c3ccccc23)NC(=O)[C@H](Cc2ccccc2)NC(=O)[C@H](Cc2ccccc2)NC(=O)[C@H](CC(N)=O)NC(=O)[C@H](CCCCN)NC1=O` [Regular linear somatostatin, somatostatin], for which, in the assay on phagocytes, the “India ink (μl/ml blood) 3 min” value is 11.7 ± 0.1 μl/ml blood, the “India ink (μl/ml blood) 6 min” value came to 11.9 ± 2.6 μl/ml blood, the “India ink (μl/ml blood) 12 min” value was found to be 5.3 ± 1.4 μl/ml blood and the “India ink (μl/ml blood) 24 min” value came out at 2.6 ± 0.1 μl/ml blood.

As for “somatostatin (AGCKNFFWKTFTSC; not fully specified (bridges); cysteine pairing not given here; UniProt P61278 103-116, looked up) [cyclic tetradecapeptide hormone, reference compound]”, in assay [1], the “SGOT (U/l)” value came out at 1757 ± 681 U/l and the “Liver histology (Scale: 0-4)” value is 2.6 ± 0.3. In addition, the “Histologic examination of the liver after phalloidin” value in assay [2] was “milder vacuolization of hepatocytes and less congestion”. In assay [2] (control 22 of 24 rats died), the “Mortality after phalloidin” value is recorded as “significantly smaller number of rats”.
